# Data: ChEMBL document CHEMBL5335861, “Novel ACC Inhibitors for Treating Acne” (ACS Med Chem Lett, 2024)
# Biological target: Acetyl-CoA carboxylase 1 (Homo sapiens, UniProt Q13085)
# Assay: Inhibition of full length human recombinant ACC1 expressed in baculovirus infected Sf9 cells incubated for 18 hrs in presence of ATP by envision fluorescence reader analysis
structure (smiles),measurement,value
COc1cc(C(=O)N2CCC3(CC2)CC(=O)c2nc(C(C)(C)C)sc2C3)c2[nH]ccc2c1Cl,IC50,1.3 nM
